Measurements from publication PMC11184554, “Nature-Inspired Gallinamides Are Potent Antischistosomal Agents: Inhibition of the Cathepsin B1 Protease Target and Binding Mode Analysis” (ACS Infectious Diseases, 2024).
Read-outs that look alike come from different tables or passages of the source.

Assays:
[1] = tested on: ex vivo adult mixed sex S. mansoni; assay: Phenotypic screen with ex vivo adult schistosomes; type: cell-based; conditions: for adult severity score: scale 0 to 4
Procedure: In the next step, the bioactive compounds gallinamide A, 1, 6, and 9 (selected for structural analyses (see below)) were phenotypically screened against adult schistosomes. Experiments were performed at 1, 2, 5, and 10 μM with ex vivo adult mixed sex S. mansoni, and the phenotypes observed over 48 h were assigned severity scores ranging from 0 to 4 (Table 3 and Table S3).
For adult schistosomes, screens were performed in 24-well plates containing four male worms and one to two female worms per well in a final volume of 2 mL of complete Basch medium. Compounds were added at the final concentrations between 1 and 10 μM. Incubations were maintained for 48 h at 37 °C under 5% CO2. Afterward, the adult worms were collected, washed in RPMI 1640 medium, and used for soluble protein extract preparation.
A constrained nomenclature of “descriptors”[39],[42] was used to record the multiple and dynamic changes in movement, shape, and translucence that the schistosome parasite is capable of (Table S1 for NTS and Table S3 for adults). These descriptors were then converted into an ordinal “severity score” system ranging from 0 (no effect) to 4 (maximum effect), which allows for the relative comparison of compound effects.

[2] = Cytotoxicity, CellTiter Glo 2.0; type: cell-based; conditions: human, ± SD; for viability at 72 h, 1 µM: panel A, read-out: Cell line viability after 72 h (%); for viability at 24 h, 10 µM / viability at 48 h, 10 µM / viability at 72 h, 10 µM: panel B, read-out: Cell line viability (%) after treatment with 10 µM compound
Procedure: Table S4. Cytotoxicity of gallinamides.
Cytotoxicity of gallinamide A and compounds 1, 6, and 9 was tested with four human cell lines and expressed as % viability vs. untreated cells. Cells were treated with the indicated compound concentrations for 72 h (A) or with 10 µM compounds for the indicated time (B) and assayed using CellTiter Glo 2.0 (Promega) according to the manufacturer’ s protocol. Cytotoxicity was expressed as percent viability compared to untreated control cells; the standard deviation of the mean of quadruplicate readings is shown. Cell line abbreviations: HL-60, human promyelocytic leukemia; HeLa, human cervical carcinoma; HepG2, human hepatocellular carcinoma; NHDF, normal human dermal fibroblasts.
Cell line viability after 72 h (%)
Cell line HL-60 HeLa HepG2 NHDF
Cell line viability (%) after treatment w ith 10 µM compound

COC1=CC(=O)N(C(=O)/C=C/[C@H](C)NC(=O)[C@H](CC(C)C)NC(=O)[C@H](CC(C)C)OC(=O)[C@H](Cc2ccccc2)N(C)C)[C@H]1Cc1ccccc1 [compound 6]
adult phenotype descriptors ([1]; 2 h, 1 µM): N
adult severity score ([1]; 2 h, 1 μM): 0
adult phenotype descriptors ([1]; 2 h, 2 µM): N
adult severity score ([1]; 2 h, 2 μM): 0
adult phenotype descriptors ([1]; 2 h, 5 µM): unc
adult severity score ([1]; 2 h, 5 μM): 1
adult phenotype descriptors ([1]; 2 h, 10 µM): unc, on sides
adult severity score ([1]; 2 h, 10 μM): 2
adult phenotype descriptors ([1]; 6 h, 1 µM): N
adult severity score ([1]; 6 h, 1 μM): 0
adult phenotype descriptors ([1]; 6 h, 2 µM): N
adult severity score ([1]; 6 h, 2 μM): 0
adult phenotype descriptors ([1]; 6 h, 5 µM): unc
adult severity score ([1]; 6 h, 5 μM): 1
adult phenotype descriptors ([1]; 6 h, 10 µM): unc, on sides
adult severity score ([1]; 6 h, 10 μM): 2
adult phenotype descriptors ([1]; 24 h, 1 µM): N
adult severity score ([1]; 24 h, 1 μM): 0
adult phenotype descriptors ([1]; 24 h, 2 µM): N
adult severity score ([1]; 24 h, 2 μM): 0
adult severity score ([1]; 24 h, 5 μM): 2
adult severity score ([1]; 24 h, 10 μM): 4
adult phenotype descriptors ([1]; 48 h, 1 µM): N
adult severity score ([1]; 48 h, 1 μM): 0
adult phenotype descriptors ([1]; 48 h, 2 µM): dark
adult severity score ([1]; 48 h, 2 μM): 1
adult severity score ([1]; 48 h, 5 μM): 4
adult severity score ([1]; 48 h, 10 μM): 4
viability at 72 h, 1 µM ([2]; HL-60, vs untreated cells): 100 ± 5%
viability at 72 h, 1 µM ([2]; HeLa): 93 ± 4%
viability at 72 h, 1 µM ([2]; HepG2): 104 ± 3%
viability at 72 h, 1 µM ([2]; NHDF): 99 ± 3%
viability at 24 h, 10 µM ([2]; HL-60): 31 ± 1%
viability at 48 h, 10 µM ([2]; HL-60): 11 ± 2%
viability at 72 h, 10 µM ([2]; HL-60): 11%
viability at 24 h, 10 µM ([2]; HeLa): 45 ± 1%
viability at 48 h, 10 µM ([2]; HeLa): 13 ± 1%
viability at 72 h, 10 µM ([2]; HeLa): 13 ± 1%
viability at 24 h, 10 µM ([2]; HepG2): 61 ± 1%
viability at 48 h, 10 µM ([2]; HepG2): 14 ± 1%
viability at 72 h, 10 µM ([2]; HepG2): 13 ± 1%
viability at 24 h, 10 µM ([2]; NHDF): 100 ± 2%
viability at 48 h, 10 µM ([2]; NHDF): 35 ± 3%
viability at 72 h, 10 µM ([2]; NHDF): 13 ± 13%

CC[C@H](C)[C@@H](C(=O)O[C@@H](CC(C)C)C(=O)N[C@@H](CC(C)C)C(=O)N[C@@H](C)/C=C/C(=O)N1C(=O)C=C(OC)[C@@H]1C)N(C)C [gallinamide A]
adult phenotype descriptors ([1]; 2 h, 1 µM): N
adult severity score ([1]; 2 h, 1 μM): 0
adult phenotype descriptors ([1]; 2 h, 2 µM): N
adult severity score ([1]; 2 h, 2 μM): 0
adult phenotype descriptors ([1]; 2 h, 5 µM): N
adult severity score ([1]; 2 h, 5 μM): 0
adult phenotype descriptors ([1]; 2 h, 10 µM): N
adult severity score ([1]; 2 h, 10 μM): 0
adult phenotype descriptors ([1]; 6 h, 1 µM): N
adult severity score ([1]; 6 h, 1 μM): 0
adult phenotype descriptors ([1]; 6 h, 2 µM): N
adult severity score ([1]; 6 h, 2 μM): 0
adult phenotype descriptors ([1]; 6 h, 5 µM): N
adult severity score ([1]; 6 h, 5 μM): 0
adult phenotype descriptors ([1]; 6 h, 10 µM): N
adult severity score ([1]; 6 h, 10 μM): 0
adult phenotype descriptors ([1]; 24 h, 1 µM): N
adult severity score ([1]; 24 h, 1 μM): 0
adult phenotype descriptors ([1]; 24 h, 2 µM): N
adult severity score ([1]; 24 h, 2 μM): 0
adult phenotype descriptors ([1]; 24 h, 5 µM): N
adult severity score ([1]; 24 h, 5 μM): 0
adult phenotype descriptors ([1]; 24 h, 10 µM): unc
adult severity score ([1]; 24 h, 10 μM): 1
adult phenotype descriptors ([1]; 48 h, 1 µM): N
adult severity score ([1]; 48 h, 1 μM): 0
adult phenotype descriptors ([1]; 48 h, 2 µM): S, dark
adult severity score ([1]; 48 h, 2 μM): 2
adult phenotype descriptors ([1]; 48 h, 5 µM): S, dark
adult severity score ([1]; 48 h, 5 μM): 2
adult severity score ([1]; 48 h, 10 μM): 3
viability at 72 h, 1 µM ([2]; HL-60, vs untreated cells): 100 ± 6%
viability at 72 h, 1 µM ([2]; HeLa): 96 ± 4%
viability at 72 h, 1 µM ([2]; HepG2): 96 ± 3%
viability at 72 h, 1 µM ([2]; NHDF): 105 ± 6%
viability at 24 h, 10 µM ([2]; HL-60): 99 ± 5%
viability at 48 h, 10 µM ([2]; HL-60): 77 ± 3%
viability at 72 h, 10 µM ([2]; HL-60): 73 ± 5%
viability at 24 h, 10 µM ([2]; HeLa): 77 ± 4%
viability at 48 h, 10 µM ([2]; HeLa): 73 ± 3%
viability at 72 h, 10 µM ([2]; HeLa): 88 ± 6%
viability at 24 h, 10 µM ([2]; HepG2): 93 ± 6%
viability at 48 h, 10 µM ([2]; HepG2): 98 ± 7%
viability at 72 h, 10 µM ([2]; HepG2): 94 ± 11%
viability at 24 h, 10 µM ([2]; NHDF): 80 ± 2%
viability at 48 h, 10 µM ([2]; NHDF): 89 ± 3%
viability at 72 h, 10 µM ([2]; NHDF): 94 ± 94%
